Patent publication US10035766B2, “Compositions for preventing and/or treating lysosomal storage disorders” (Amicus Therapeutics, Inc., priority 2009, dated 2018)
Counter-ions that a name gives are not always drawn. Like-named read-outs stand apart in the source and are kept apart here.

Legend:
GCase = molecular target: T1, GCase (Homo sapiens, UniProt P04062); assay: GCase activity enhancement (EC50, Emax) of Table 2B; assay type: cell-based; settings: for GCase activity enhancement compared to reference compound IFG-tartrate: same maximum level as IFG-tartrate at much lower concentration
T1 sequence (P04062 40-536): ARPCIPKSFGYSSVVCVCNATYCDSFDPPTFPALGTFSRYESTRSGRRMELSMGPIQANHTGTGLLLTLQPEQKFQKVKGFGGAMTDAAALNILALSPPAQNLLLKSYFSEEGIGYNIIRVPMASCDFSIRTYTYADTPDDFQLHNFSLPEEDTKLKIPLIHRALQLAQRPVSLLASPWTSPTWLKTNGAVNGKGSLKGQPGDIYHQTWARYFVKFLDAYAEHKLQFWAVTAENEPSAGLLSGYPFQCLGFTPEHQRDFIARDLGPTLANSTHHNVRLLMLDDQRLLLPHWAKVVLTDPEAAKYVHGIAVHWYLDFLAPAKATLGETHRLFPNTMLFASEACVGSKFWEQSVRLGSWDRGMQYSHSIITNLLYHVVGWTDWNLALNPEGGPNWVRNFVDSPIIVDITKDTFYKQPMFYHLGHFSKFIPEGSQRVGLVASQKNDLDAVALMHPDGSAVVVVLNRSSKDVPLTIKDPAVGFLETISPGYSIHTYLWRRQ

[1] = Blood brain barrier penetration: plasma and brain levels after single oral dose; assay type: in vivo; settings: mice, single 30 mg/kg (free base equivalent) p.o.
Description: For this purpose, 8-week old wild-type male mice (C57BL/6) were administered a single 30 mg/kg (free base equivalent) p.o. dose of reference or test compound by gavage (n=3 mice per time point). Dosing solutions were prepared in water. After dosing, mice were euthanized with CO2 at the following time points: 0-, 0.5-, 1-, and 4-hour post-dose. […] Similarly, brains were collected from each mouse. Plasma was derived by spinning whole blood at 2,700×g for 10 minutes at 4° C. followed by storage on dry ice. Whole brains were washed in cold PBS to remove contaminating blood, blotted dry, flash frozen on dry ice, and ultimately stored at −80° C. until analysis. To prepare brain samples for analysis, 50-100 mg of tissue was homogenized in […] of water/mg tissue. Samples were then clarified by centrifugation. Next, 25 μl of the brain homogenate supernatant or 25 μl of plasma were combined with 25 μl of acetonitrile:water (95/5). […] Samples were again clarified by centrifugation and 75 μl of the supernatant was combined with 75 μl of acetonitrile. Samples were then analyzed for compound levels by LC-MS/MS at PPD Inc. (3230 Deming Way, Middleton, Wis. 53562). In brief, a Thermo Betasil, Silica-100, 50×3 mm, 5μ column equilibrated with a mixture of mobile phase consisting of 5 mM ammonium formate and 0.05% formic acid in (A) 95:5 acetonitrile:water or (B) 70:20:10 methanol:water:acetonitrile was employed. Between 20 and 30 μl sample was injected for analysis. For calculating drug concentrations, raw data for plasma (ng/mL) and brain (ng/g) was converted to nM using the molecular weight of respective compounds and assuming 1 g of tissue is equivalent to 1 mL volume. Concentration as a function of time was plotted in GraphPad Prism version 4.02.

Rat pharmacokinetics = assay type: in vivo, rats; settings: for AUC(0-t): AUC0-24 hr
Description: Pharmacokinetic (PK) data was obtained in rats to assess the bioavailability of test compound. In particular, the following PK parameters were calculated: bioavailability as measured by area under the Concentration/Time curve (AUC), fraction of dose available (% F; further defined below), clearance (CL), volume of distribution (Vd), and half-life (t½). […] Three rats were used per dosing group. Blood was collected over a 24-hr period. The time points for blood collection after intravenous administration were: 0, 2.5, 5, 10, 15, 30, 45 min, 1, 2, 4, 8, 12, and 24 hrs; time points for blood collection after p.o. administrations were: 0, 5, 15, 30, 45 min, 1, 2, 3, 4, 8, 12, and 24 hrs. Plasma samples were analyzed for compound levels by LC-MS/MS at PPD. Raw data was analyzed by non-compartmental analysis in Win-nonLin to calculate VD, % F, CL, and t1/2.

[2] = male, Sprague-Dawley, plasma, iv, 3 mg/kg, IV 3 mg/kg free base

In the case of `O[C@H]1[C@H](O)CNC[C@@H]1C(F)F` [Compound 6, (3R,4R,5S)-5-(Difluoromethyl)piperdine 3,4-diol Hydrochloride], the Emax (GCase) is reported as 106 ± 8.7%, the “GCase activity enhancement compared to reference compound IFG-tartrate” value (GCase) is reported as “concentration-dependent increase in GCase activity” and the “blood brain barrier crossing compared to IFG-tartrate” value [1] is reported as “crossed the blood brain barrier more readily as compared to IFG-tartrate”. For the same compound, the “levels detected in brain compared to IFG-tartrate” value [1] was “higher levels”, the dose proportionality (Rat pharmacokinetics) was “dose proportionality” and the pharmacokinetic profile (Rat pharmacokinetics) was “favorable pharmacokinetic profiles for drug development”. For the same compound, the volume of distribution (Rat pharmacokinetics) was “suggesting adequate penetration into peripheral tissues”, the “CL” value (Rat pharmacokinetics; IV 3 mg/kg free base) was 1555 mL/h/kg and the “Cmax” value (Rat pharmacokinetics; IV 3 mg/kg free base) was 2323 ng/mL. The “VD” value (Rat pharmacokinetics; IV 3 mg/kg free base) was 2612 mL/kg, the “% F” value (Rat pharmacokinetics; PO 10 mg/kg free base) was 106% and the “Cmax” value (Rat pharmacokinetics; PO 10 mg/kg free base) was 3363 ng/mL. For the same compound, the “t1/2” value (Rat pharmacokinetics; PO 10 mg/kg free base) was 2.58 h, the “% F” value (Rat pharmacokinetics; PO 30 mg/kg free base) was 101% and the “Cmax” value (Rat pharmacokinetics; PO 30 mg/kg free base) was 10037 ng/mL. For the same compound, the “t1/2” value (Rat pharmacokinetics; PO 30 mg/kg free base) was 2.75 h, the “% F” value (Rat pharmacokinetics; PO 100 mg/kg free base) was 121% and the “Cmax” value (Rat pharmacokinetics; PO 100 mg/kg free base) was 33200 ng/mL. For the same compound, the “t1/2” value (Rat pharmacokinetics; PO 100 mg/kg free base) was 2.41 h.

For `CC(F)[C@H]1CNC[C@@H](O)[C@@H]1O` (single isomer, unassigned), the “GCase activity enhancement compared to reference compound IFG-tartrate” value (GCase) was “concentration-dependent increase in GCase activity”, the “blood brain barrier crossing compared to IFG-tartrate” value [1] was “crossed the blood brain barrier more readily as compared to IFG-tartrate” and the “levels detected in brain compared to IFG-tartrate” value [1] was “higher levels”. For the same compound, the dose proportionality (Rat pharmacokinetics) was “dose proportionality”, the pharmacokinetic profile (Rat pharmacokinetics) was “favorable pharmacokinetic profiles for drug development” and the volume of distribution (Rat pharmacokinetics) was “suggesting adequate penetration into peripheral tissues”. The Vd (Rat pharmacokinetics; [2]) was 9.77 ± 1.55 L/kg, the clearance (Rat pharmacokinetics; [2]) was 45.1 mL/min/kg and the AUC(0-t) (Rat pharmacokinetics; [2]) was 1420 ± 188 ng·h/mL. The Cmax (Rat pharmacokinetics; male, Sprague-Dawley, plasma, iv, 3 mg/kg, IV 3 mg/kg free base, read-out: Cmax) was 2330 ± 373 ng/mL, the half-life (Rat pharmacokinetics; male, Sprague-Dawley, plasma, iv, 3 mg/kg, IV 3 mg/kg free base, read-out: t1/2 (converted)) was 156 ± 38.4 min and the AUC(0-t) (Rat pharmacokinetics; male, Sprague-Dawley, plasma, po, 10 mg/kg, PO 10 mg/kg free base) was 7100 ± 606 ng·h/mL. The half-life (Rat pharmacokinetics; male, Sprague-Dawley, plasma, po, 10 mg/kg, PO 10 mg/kg free base, read-out: t1/2 (converted)) was 168 ± 30 min, the AUC(0-t) (Rat pharmacokinetics; male, Sprague-Dawley, plasma, po, 30 mg/kg, PO 30 mg/kg free base) was 21700 ± 1710 ng·h/mL and the Cmax (Rat pharmacokinetics; male, Sprague-Dawley, plasma, po, 30 mg/kg, PO 30 mg/kg free base, read-out: Cmax) was 6920 ± 451 ng/mL. It also gave a half-life (Rat pharmacokinetics; male, Sprague-Dawley, plasma, po, 30 mg/kg, PO 30 mg/kg free base, read-out: t1/2 (converted)) of 162 ± 7.2 min, an AUC(0-t) (Rat pharmacokinetics; male, Sprague-Dawley, plasma, po, 100 mg/kg, PO 100 mg/kg free base) of 59500 ± 1000 ng·h/mL and a Cmax (Rat pharmacokinetics; male, Sprague-Dawley, plasma, po, 100 mg/kg, PO 100 mg/kg free base, read-out: Cmax) of 19400 ± 3030 ng/mL. For the same compound, the half-life (Rat pharmacokinetics; male, Sprague-Dawley, plasma, po, 100 mg/kg, PO 100 mg/kg free base, read-out: t1/2 (converted)) was 150 ± 11.4 min, the bioavailability (Rat pharmacokinetics; male, Sprague-Dawley, plasma, po, approximately) was 50 to 100% and the half-life (Rat pharmacokinetics; male, Sprague-Dawley, plasma, read-out: half-life) was 60 to 240 min.

With `CC[C@@H](F)[C@H]1CNC[C@@H](O)[C@@H]1O.Cl` [(3R,4R,5S)-5-((R)-1-fluoropropyl)-piperidine-3,4-diol hydrochloride] the Emax (GCase) was 84 ± 4.1%, the “GCase activity enhancement compared to reference compound IFG-tartrate” value (GCase) was “concentration-dependent increase in GCase activity” and the “blood brain barrier crossing compared to IFG-tartrate” value [1] was “crossed the blood brain barrier more readily as compared to IFG-tartrate”. For the same compound, the “levels detected in brain compared to IFG-tartrate” value [1] was “higher levels”.

For `O[C@@H]1[C@@H](Cc2ccccc2)CNC[C@H]1O` [(3R,4R,5S)-5-benzyl-piperidine-3,4-diol], the Emax (GCase) was 98 ± 4.5%, the “GCase activity enhancement compared to reference compound IFG-tartrate” value (GCase) was “concentration-dependent increase in GCase activity” and the “blood brain barrier crossing compared to IFG-tartrate” value [1] was “crossed the blood brain barrier more readily as compared to IFG-tartrate”. For the same compound, the “levels detected in brain compared to IFG-tartrate” value [1] was “higher levels”, the dose proportionality (Rat pharmacokinetics) was “dose proportionality” and the pharmacokinetic profile (Rat pharmacokinetics) was “favorable pharmacokinetic profiles for drug development”. The volume of distribution (Rat pharmacokinetics) was “suggesting adequate penetration into peripheral tissues”.
